This note sets out measurements from patent US8263606B2 (Xenon Pharmaceuticals Inc., priority 2008, dated 2012).

In one data set the test system is sodium channel. Briefly: Guanidine influx assay (14C-guanidine radiotracer flux, in vitro). The note with it: guanidine influx assay using a known cell line that expresses a sodium channel. It counts as cell-based, human or rat. The gist of the method: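 IC50 derives from a four-parameter logistic fit of 14C-guanidine uptake, test agent serially half-diluted around a 1 μM midpoint. Flux was driven by aconitine in low-sodium HEPES/choline saline at ambient temperature, using endogenous or recombinant human or rat sodium-channel cell lines plated ~100,000/well for 20–24 h.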

A further data set deals with CYP3A4 (Homo sapiens, UniProt P08684). Briefly: Cytochrome P450 (CYP450) Inhibition Assay, CYP3A4 (Vivid fluorescence, BOMCC substrate). The note with it: human, P450 Baculosomes (recombinant CYP3A4), probe BOMCC (Vivid substrate).
Chain of CYP3A4 (P08684 whole entry): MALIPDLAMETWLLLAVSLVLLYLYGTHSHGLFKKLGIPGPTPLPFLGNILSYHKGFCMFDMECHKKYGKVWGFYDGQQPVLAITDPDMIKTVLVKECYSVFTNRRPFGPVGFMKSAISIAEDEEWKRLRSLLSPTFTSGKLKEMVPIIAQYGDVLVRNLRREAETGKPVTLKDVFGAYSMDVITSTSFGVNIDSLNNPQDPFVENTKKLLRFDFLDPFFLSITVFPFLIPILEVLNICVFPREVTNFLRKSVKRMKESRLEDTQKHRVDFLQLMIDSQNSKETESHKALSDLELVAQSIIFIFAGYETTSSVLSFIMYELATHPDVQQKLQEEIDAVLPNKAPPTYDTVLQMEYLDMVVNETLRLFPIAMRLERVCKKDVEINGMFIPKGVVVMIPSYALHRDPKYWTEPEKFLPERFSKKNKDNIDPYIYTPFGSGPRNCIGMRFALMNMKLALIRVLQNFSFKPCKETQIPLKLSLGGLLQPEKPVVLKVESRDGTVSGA

Consider `CCc1ccccc1NC(=O)c1ccccc1CN1C(=O)C2(COc3cc4c(cc32)CCO4)c2ccccc21` (stereo not drawn) [Example 12.9, N-(2-ethylphenyl)-2-[(2′-oxo-5,6-dihydrospiro[benzo[1,2-b:5,4-b′]difuran-3,3′-indol]-1′(2′H)-yl)methyl]benzamide], for which the melting point – broadly, the temperature, or range, at which the solid turns liquid – was in the range of 184 to 186 °C. Also, in the data set with sodium channel, the IC50 (commonly the point on the concentration scale where inhibition reaches its midpoint) lay within 1 to 10 µM. On CYP3A4, the inhibition (usually the drop in the measured response relative to a control, in per cent) at 10 µM is more than 50%.
As for `Cc1ccc(NC(=O)c2ccccc2CN2C(=O)C3(COc4cc5c(cc43)CCO5)c3ccccc32)c(C)c1` (stereo not drawn) [Example 12.10, N-(2,4-dimethylphenyl)-2-[(2′-oxo-5,6-dihydrospiro[benzo[1,2-b:5,4-b′]difuran-3,3′-indol]-1′(2′H)-yl)methyl]benzamide], the melting point lay within 207 to 208 °C. For the same compound, the IC50 in the data set on sodium channel was 1 to 10 µM. In addition, at CYP3A4, the inhibition at 10 µM is more than 50%.
`COc1ccccc1NC(=O)c1ccccc1CN1C(=O)C2(COc3cc4c(cc32)CCO4)c2ccccc21` (stereo not drawn) [Example 12.11, N-(2-methoxyphenyl)-2-[(2′-oxo-5,6-dihydrospiro[benzo[1,2-b:5,4-b′]difuran-3,3′-indol]-1′(2′H)-yl)methyl]benzamide] came in with a melting point of 172 to 174 °C. For the same compound, the IC50 in the data set with sodium channel was in the range of 1 to 10 µM. For the same compound, the inhibition at 10 µM at CYP3A4 is more than 50%.
On to `O=C(Nc1ccccc1F)c1ccccc1CN1C(=O)C2(COc3cc4c(cc32)CCO4)c2ccccc21` (stereo not drawn) [Example 12.12, N-(2-fluorophenyl)-2-[(2′-oxo-5,6-dihydrospiro[benzo[1,2-b:5,4-b′]difuran-3,3′-indol]-1′(2′H)-yl)methyl]benzamide], for which the melting point is 195 to 197 °C. The IC50 in the data set with sodium channel lay within 0.1 to 1 µM. The inhibition at 10 µM at CYP3A4 was more than 50%.
Regarding `O=C(Nc1cccc(Cl)c1)c1ccccc1CN1C(=O)C2(COc3cc4c(cc32)CCO4)c2ccccc21` (stereo not drawn) [Example 12.13, N-(3-chlorophenyl)-2-[(2′-oxo-5,6-dihydrospiro[benzo[1,2-b:5,4-b′]difuran-3,3′-indol]-1′(2′H)-yl)methyl]benzamide], the melting point was more than 230 °C. Besides, in the data set with sodium channel, the IC50 is 1 to 10 µM. Moreover, the inhibition at 10 µM at CYP3A4 was more than 50%.
`Cc1c(F)cccc1NC(=O)c1ccccc1CN1C(=O)C2(COc3cc4c(cc32)CCO4)c2ccccc21` (stereo not drawn) [Example 12.14, N-(3-fluoro-2-methylphenyl)-2-[(2′-oxo-5,6-dihydrospiro[benzo[1,2-b:5,4-b′]difuran-3,3′-indol]-1′(2′H)-yl)methyl]benzamide] returned a melting point of more than 230 °C. Besides, the IC50 with sodium channel was in the range of 0.1 to 1 µM. Besides, on CYP3A4, the inhibition at 10 µM is more than 50%.
With `CCCCCCCNC(=O)c1ccccc1CN1C(=O)C2(COc3cc4c(cc32)CCO4)c2ccccc21` (stereo not drawn) [Example 12.15, N-heptyl-2-[(2′-oxo-5,6-dihydrospiro[benzo[1,2-b:5,4-b′]difuran-3,3′-indol]-1′(2′H)-yl)methyl]benzamide], the melting point is 196 to 198 °C. For the same compound, the IC50 in the data set with sodium channel was in the range of 1 to 10 µM. In addition, at CYP3A4, the inhibition at 10 µM was more than 50%.
In the same order, the values of `O=C(NCc1ccccc1Cl)c1ccccc1CN1C(=O)C2(COc3cc4c(cc32)CCO4)c2ccccc21` (stereo not drawn) [Example 12.16, N-(2-chlorobenzyl)-2-[(2′-oxo-5,6-dihydrospiro[benzo[1,2-b:5,4-b′]difuran-3,3′-indol]-1′(2′H)-yl)methyl]benzamide] are 148 to 150 °C, 0.1 to 1 µM and more than 50%.
`O=C(c1ccccc1CN1C(=O)C2(COc3cc4c(cc32)CCO4)c2ccccc21)N1CCCCC1` (stereo not drawn) [Example 12.17, 1′-[2-(piperidin-1-ylcarbonyl)benzyl]-5,6-dihydrospiro[benzo[1,2-b:5,4-b′]difuran-3,3′-indol]-2′(1′H)-one] yielded a melting point of 168 to 170 °C. In the data set with sodium channel, the concentration for half-maximal inhibition (IC50) lay within 1 to 10 µM. Besides, the inhibition at 10 µM on CYP3A4 is more than 50%.
As to `CCCCNC(=O)c1ccccc1CN1C(=O)C2(COc3cc4c(cc32)CCO4)c2ccccc21` (stereo not drawn) [Example 12.18, N-butyl-2-[(2′-oxo-5,6-dihydrospiro[benzo[1,2-b:5,4-b′]difuran-3,3′-indol]-1′(2′H)-yl)methyl]benzamide], the melting point was in the range of 176 to 178 °C. In addition, the IC50 in the data set with sodium channel lay within 1 to 10 µM. On CYP3A4, the inhibition at 10 µM is more than 50%.
`Cc1cccc(NC(=O)c2ccccc2CN2C(=O)C3(COc4cc5c(cc43)CCO5)c3ccccc32)c1` (stereo not drawn) [Example 12.19, N-(3-methylphenyl)-2-[(2′-oxo-5,6-dihydrospiro[benzo[1,2-b:5,4-b′]difuran-3,3′-indol]-1′(2′H)-yl)methyl]benzamide]: the melting point fell in the range of 229 to 231 °C. Besides, in the data set on sodium channel, the IC50 lay within 1 to 10 µM. On CYP3A4, the inhibition at 10 µM is more than 50%.
Compound `Cc1ccc(F)c(NC(=O)c2ccccc2CN2C(=O)C3(COc4cc5c(cc43)CCO5)c3ccccc32)c1` (stereo not drawn) [Example 12.20, N-(2-fluoro-5-methylphenyl)-2-[(2′-oxo-5,6-dihydrospiro[benzo[1,2-b:5,4-b′]difuran-3,3′-indol]-1′(2′H)-yl)methyl]benzamide] displayed a melting point of 214 to 216 °C. Also, the IC50 in the data set with sodium channel was 1 to 10 µM. Moreover, at CYP3A4, the inhibition at 10 µM is more than 50%.
As for `Cc1cccc(NC(=O)c2ccccc2CN2C(=O)C3(COc4cc5c(cc43)CCO5)c3ccccc32)c1C` (stereo not drawn) [Example 12.21, N-(2,3-dimethylphenyl)-2-[(2′-oxo-5,6-dihydrospiro[benzo[1,2-b:5,4-b′]difuran-3,3′-indol]-1′(2′H)-yl)methyl]benzamide], the melting point was more than 230 °C. Moreover, in the data set on sodium channel, the IC50 was 1 to 10 µM. Also, the inhibition at 10 µM on CYP3A4 was more than 50%.
In the same order, the values of `CCc1ccccc1NC(=O)c1ccc(CN2C(=O)C3(COc4cc5c(cc43)CCO5)c3ccccc32)cc1` (stereo not drawn) [Example 12.34, N-(2-ethylphenyl)-4-[(2′-oxo-5,6-dihydrospiro[benzo[1,2-b:5,4-b′]difuran-3,3′-indol]-1′(2′H)-yl)methyl]benzamide] are 203 to 204 °C, 1 to 10 µM and more than 50%.
Take `Cc1cccc(C)c1NC(=O)c1ccc(CN2C(=O)C3(COc4cc5c(cc43)CCO5)c3ccccc32)cc1` (stereo not drawn) [Example 12.35, N-(2,6-dimethylphenyl)-4-[(2′-oxo-5,6-dihydrospiro[benzo[1,2-b:5,4-b′]difuran-3,3′-indol]-1′(2′H)-yl)methyl]benzamide]: the melting point is more than 250 °C. Moreover, the IC50 in the data set with sodium channel lay within 1 to 10 µM. Besides, the inhibition at 10 µM on CYP3A4 is more than 50%.
In the same order, the values of `O=C(Nc1cccc(F)c1)c1ccc(CN2C(=O)C3(COc4cc5c(cc43)CCO5)c3ccccc32)cc1` (stereo not drawn) [Example 12.36, N-(3-fluorophenyl)-4-[(2′-oxo-5,6-dihydrospiro[benzo[1,2-b:5,4-b′]difuran-3,3′-indol]-1′(2′H)-yl)methyl]benzamide] are more than 250 °C, 0.1 to 1 µM and less than 50%.
The compound `Cc1ccc(NC(=O)c2ccc(CN3C(=O)C4(COc5cc6c(cc54)CCO6)c4ccccc43)cc2)c(C)c1` (stereo not drawn) [Example 12.37, N-(2,4-dimethylphenyl)-4-[(2′-oxo-5,6-dihydrospiro[benzo[1,2-b:5,4-b′]difuran-3,3′-indol]-1′(2′H)-yl)methyl]benzamide] showed a melting point of 249 to 251 °C. Further, in the data set with sodium channel, the 50% inhibitory concentration (IC50) lay in the range of 0.1 to 1 µM. The inhibition at 10 µM on CYP3A4 was less than 50%.
`O=C(NCc1cccs1)c1ccc(CN2C(=O)C3(COc4cc5c(cc43)CCO5)c3ccccc32)cc1` (stereo not drawn) [Example 12.38, 4-[(2′-oxo-5,6-dihydrospiro[benzo[1,2-b:5,4-b′]difuran-3,3′-indol]-1′(2′H)-yl)methyl]-N-(thiophen-2-ylmethyl)benzamide]: the melting point fell in the range of 167 to 168 °C. Also, the IC50 with sodium channel was in the range of 0.1 to 1 µM. Further, the inhibition at 10 µM at CYP3A4 was more than 50%.
For `CCNC(=O)c1ccc(CN2C(=O)C3(COc4cc5c(cc43)CCO5)c3ccccc32)cc1` (stereo not drawn) [Example 12.39, N-ethyl-4-[(2′-oxo-5,6-dihydrospiro[benzo[1,2-b:5,4-b′]difuran-3,3′-indol]-1′(2′H)-yl)methyl]benzamide], the melting point fell in the range of 190 to 191 °C. Besides, the IC50 in the data set with sodium channel was 0.1 to 1 µM. The inhibition at 10 µM on CYP3A4 was more than 50%.
In the same order, the values of `COCCNC(=O)c1ccc(CN2C(=O)C3(COc4cc5c(cc43)CCO5)c3ccccc32)cc1` (stereo not drawn) [Example 12.40, N-(2-methoxyethyl)-4-[(2′-oxo-5,6-dihydrospiro[benzo[1,2-b:5,4-b′]difuran-3,3′-indol]-1′(2′H)-yl)methyl]benzamide] are 182 to 183 °C, 0.1 to 1 µM and less than 50%.
Compound `CCOCCNC(=O)c1ccc(CN2C(=O)C3(COc4cc5c(cc43)CCO5)c3ccccc32)cc1` (stereo not drawn) [Example 12.41, N-(2-ethoxyethyl)-4-[(2′-oxo-5,6-dihydrospiro[benzo[1,2-b:5,4-b′]difuran-3,3′-indol]-1′(2′H)-yl)methyl]benzamide] displayed a melting point of 84 to 85 °C. For the same compound, in the data set on sodium channel, the IC50 is 0.1 to 1 µM. Besides, the inhibition at 10 µM on CYP3A4 is more than 50%.
Turning to `O=C(NC1CCC1)c1ccc(CN2C(=O)C3(COc4cc5c(cc43)CCO5)c3ccccc32)cc1` (stereo not drawn) [Example 12.42, N-cyclobutyl-4-[(2-oxo-5,6-dihydrospiro[benzo[1,2-b:5,4-b′]difuran-3,3-indol]-1(2H)-yl)methyl]benzamide], the melting point was more than 250 °C. Also, in the data set with sodium channel, the IC50 lay within 0.1 to 1 µM. Besides, the inhibition at 10 µM at CYP3A4 is more than 50%.
Turning to `O=C(Nc1nccs1)c1ccc(CN2C(=O)C3(COc4cc5c(cc43)CCO5)c3ccccc32)cc1` (stereo not drawn) [Example 12.43, 4-[(2′-oxo-5,6-dihydrospiro[benzo[1,2-b:5,4-b′]difuran-3,3′-indol]-1′(2′H)-yl)methyl]-N-1,3-thiazol-2-ylbenzamide], the melting point was more than 250 °C. Also, the IC50 with sodium channel lay in the range of 0.1 to 1 µM. Moreover, the inhibition at 10 µM at CYP3A4 is less than 50%.
